Test results from article PMC12195777, “Improved Bioavailability of Stilbenes from Cajanus cajan (L.) Millsp. Leaves Achieved by Hydroxypropyl-β-Cyclodextrin Inclusion: Preparation, Characterization and Pharmacokinetic Assessment” (Molecules, 2025).

Tests used:
[1] = In vivo pharmacokinetic study in rats after oral administration (UPLC-QqQ-MS/MS of plasma); set-up: species or system SD rats; conditions: for AUC(0-inf) / AUC(0-t) / Cmax / Tmax / half-life: male, SD, rat, plasma, n = 6; for relative bioavailability / time at which peak plasma concentration (Cmax) was reached: oral; for relative bioavailability: from the inclusion complex, using CCMLE as a reference; for time at which peak plasma concentration (Cmax) was reached: post-administration (Figure 6)
Procedure: Healthy male SD rats weighing 200 ± 20 g were housed in a specific pathogen-free (SPF) facility under controlled conditions (24 ± 1 °C, 50 ± 10% relative humidity) with a 12 h light/dark cycle. The animals were free to access purified water and a standard laboratory diet for a 1-week acclimatization period. After acclimatization, the rats were randomly divided into three groups (n = 6 per group): the control group (con), CCMLE group and stilbene/HP-β-CD inclusion complex group. The CCMLE group received an oral dose of 232 mg/kg CCMLE, while the stilbene/HP-β-CD inclusion complex group received 2.1 g/kg of the inclusion complex by oral gavage, with both containing the same amount of stilbenes. All animal experiments were performed in accordance with the National Institutes of Health Guide for the Care and Use of Laboratory Animals (NIH Publication No. 85-23, revised in 1996). The study protocol was approved by the Animal Care and Use Committee of Zhejiang University of Technology (approval number MGS20231227194).
Blood samples (approximately 300 μL) were collected via the retro-orbital venous plexus before dosing and at the following post-dose times of 5 min, 15 min, 30 min, 1 h, 1.5 h, 2 h, 4 h, 6 h, 8 h, 12 h and 24 h. Each sample was placed in an EDTA anticoagulation tube to prevent coagulation. The tubes were then centrifuged at 3500 rpm for 10 min. The upper layer of supernatant (plasma) was carefully collected and stored at −80 °C until further analysis.
The plasma samples stored at −80 °C were thawed at room temperature prior to processing. For each analysis, 100 μL of the plasma sample was accurately transferred into a centrifuge tube, followed by the addition of 40 μL of a chloramphenicol (CHL) solution (1 mg/mL) used as an internal standard (IS) and 260 μL methanol. The mixture was vortexed for 3 min to ensure thorough homogenisation and then centrifuged at 13,000 rpm for 10 min at 4 °C to precipitate proteins and other insoluble components. For analysis, 10 μL of the supernatant was injected into a ultra-high-performance liquid chromatography–triple-quadrupole tandem mass spectrometry (UPLC-QqQ-MS/MS) system.
The bioavailabilities of three stilbenes (LLC, CSA and MPA) in CCMLE and the stilbene/HP-β-CD inclusion complex were analyzed using a Waters Xevo TQ-S micro-mass spectrometry system (Waters, Milford, MA, USA) coupled to a Waters H-Class UPLC system. Chromatographic separation was performed on a Waters H-Class UPLC system equipped with a Welch Ultimate® UHPLC LP-C18 column (Waters, Milford, MA, USA, 2.1 × 50 mm, 1.8 μm) at 30 °C. The injection volume was 10 μL. The mobile phase consisted of ultrapure water (A) and acetonitrile (B) with a flow rate of 0.3 mL/min and an elution gradient programme as follows: 0–0.2 min, 90% A; 0.2–1.5 min, 90–5% A; 1.5–3.5 min, 5% A; and 3.5–5 min, 5–90% A.
Mass spectrometric analysis was performed on a Waters Xevo TQ-S micro system using electrospray ionization in the negative mode (ESI^−). The capillary voltage was 2.71 kV, and the ion source temperature was 150 °C. Nitrogen was used as the desolventizing gas and the cone pore gas, and argon was used as the collision gas. Data acquisition was performed in the multiple-reaction-monitoring (MRM) mode for all analytes.
The relative bioavailability of CSA, LLC and MPA in the stilbene/HP-β-CD inclusion complex was calculated using Equation (8), with CCMLE used as a reference:(8) Frel=AUCstilbenes/HP−β−CD/AUCCCMLE·DCCMLE/Dstilbenes/HP−β−CD·100% where AUCstilbenes/HP-β-CD and AUCCCMLE represent the areas under the blood concentration–time curve, and Dstilbenes/HP-β-CD and DCCMLE represent the orally administered dose (mg/kg).
DAS 2.0 software was used to calculate the pharmacokinetic parameters, including the area under the plasma concentration–time curve (AUC), maximum plasma concentration (Cmax), time to reach Cmax (tmax) and elimination half-life (t1/2), using a non-compartmental model. […]

[2] = Tissue distribution study in rats after oral administration; assay type: in vivo; conditions: oral CCMLE or inclusion complex, heart, liver, spleen, lungs, kidneys, brain
Procedure: The tissue distribution study followed the same experimental grouping and dosing protocols described in Section 3.12. Thirty minutes after dosing, the rats were euthanized and their tissues (including their heart, liver, spleen, lungs, kidneys and brain) were immediately collected. Each tissue was rinsed with a 0.9% NaCl solution, gently dried with filter paper, weighed and stored at −80 °C until analysis.
For sample preparation, 0.2 g of each tissue was homogenized in 0.5 mL of a 0.9% NaCl solution using a high-throughput tissue grinder (Jingxin, Shanghai, China). Next, 300 μL of the tissue homogenate was mixed with 50 μL of a CHL solution and 850 μL of methanol, vortexed for 3 min and centrifuged at 13,000 rpm for 10 min at 4 °C. Then 10 μL of the supernatant was injected into the UPLC-QqQ-MS/MS system for analysis.

[3] = quoted without reference; cited from earlier work
[4] = oral stilbene/HP-β-CD inclusion complex 2.1 g/kg

| AUC(0-inf) ([1]; oral CCMLE 232 mg/kg) [ng·h/mL] | AUC(0-t) ([1]; oral CCMLE 232 mg/kg) [ng·h/mL] | Cmax ([1]; oral CCMLE 232 mg/kg) [ng/mL] | Tmax ([1]; oral CCMLE 232 mg/kg) [h] | half-life ([1]; oral CCMLE 232 mg/kg) [h] | AUC(0-inf) [1, 4] [ng·h/mL] | AUC(0-t) [1, 4] [ng·h/mL] | Cmax [1, 4] [ng/mL] | Tmax [1, 4] [h] | half-life [1, 4] [h] | relative bioavailability [1] [%] | time at which peak plasma concentration (Cmax) was reached [1] [min] | Structure (SMILES) | tissue-specific accumulation [2] | pKa of phenolic hydroxyl groups [3] |
| --- | --- | --- | --- | --- | --- | --- | --- | --- | --- | --- | --- | --- | --- | --- |
| 170 ± 66 | 120 ± 41 | 48 | 0.3 ± 0.1 | 11 ± 5.6 | 470 ± 160 | 240 ± 82 | 140 ± 60 | 0.3 ± 0.1 | 13 ± 9.9 | 198 | 15 | COc1cc(/C=C/c2ccccc2)c(C(=O)O)c(O)c1CC=C(C)C [CSA, cajaninstilbene acid] | predominately concentrated in the liver |  |
| 10 ± 9.3 | 5.8 ± 2.9 | 0.7 ± 0.5 | 0.3 ± 0.1 | 14 ± 8.7 | 12 ± 6.7 | 10 ± 6.7 | 4.5 ± 2 | 0.5 | 6 | 177 |  | COc1cc(O)cc(/C=C/c2ccccc2)c1CC=C(C)C [LLC, longistyle C] | higher concentrations in the heart and lungs |  |
| 580 ± 170 | 560 ± 160 | 230 ± 60 | 0.4 ± 0.3 | 5.5 ± 1.7 | 803 ± 140 | 740 ± 100 | 440 ± 130 | 0.3 ± 0.1 | 9 ± 4.1 | 131 | 15 | COc1cc(O)c(C(=O)O)c(/C=C/c2ccccc2)c1 [MPA, 4-O-methylpinosylvic acid] | relatively higher levels in the liver, lungs and kidneys |  |
|  |  |  |  |  |  |  |  |  |  |  |  | Oc1ccc(/C=C/c2cc(O)cc(O)c2)cc1 [resveratrol] |  | 9.5–10 |
